Test results reported in ChEMBL document CHEMBL1201862, “PubChem BioAssay data set” (2004).
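48-hour exposure; five concentrations; linearly interpolated endpoints. GI50 is the concentration that inhibits growth by half.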 Activity calls are given as the source filed them. Cut-off read from the data, not from the text of the source: active = GI50 up to about 1.1 µM and inactive = higher.

What was measured:
Experiment in all cases: NCI tumour cell line growth inhibition, 48 h
[1] = test system: LXFL 529
[2] = test system: RXF 631
[3] = test system: DMS-114
[4] = test system: XF498
[5] = test system: DLD-1

Measured: GI50

O=C1C2C3C=C4c5ccccc5N(c5ccccc5)C4(C2C(=O)N1Cc1ccccc1)C1C(=O)N(Cc2ccccc2)C(=O)C31 (stereo not given)
inactive: [1] > 100 µM | [2] > 100 µM | [3] > 100 µM | [4] 96.2 µM | [5] > 100 µM
